What was measured:
[1] = Glycation inhibitory activity using L-arginine and glucose; format: biochemical; conditions: 55 μg/ml; positive control; n=3
Procedure: To confirm an antiglycation efficacy, glycation inhibitory activity was measured using L-arginine and glucose.
A solution of 1 M L-arginine and 1 M glucose in 1 M phosphate buffer (pH 7.4) was first prepared and diluted with 1 M phosphate buffer so that the concentration of the sample was 100 μg/ml, 1 M L-arginine and 1 M phosphate buffer were mixed in a ratio of 1:4, and 80 μl thereof was dispensed into each well of a 96-well plate. To this, each sample, which was diluted to 100 μg/ml, and 100 μl of 0.01 M aminoguanidine, which was used as a positive control, were added. After sufficiently mixing the sample, finally, glucose which was diluted with 1 M phosphate buffer so that the final concentration of glucose was 0.1 M was added and then reacted at 70° C. for four hours. In the 96-well plate, absorbance was measured at 420 nm using a spectrophotometer to measure a degree of glycation.
The glycation experimental group of Mathematical Formula 3 is an experimental group in which glycation was induced by adding 1 M L-arginine and 1 M glucose, and to measure the absorbance of a sample itself, absorbance was measured at 420 nm after adding only 1 M L-arginine and the sample and no glucose.
The glycation inhibitory activity can be calculated according to the following Mathematical Formula 3. Each group was tested three times, and an average value was obtained.

[2] = tested on: B-16 mouse melanoma cell; test: Total melanin amount reduction; format: cell-based; conditions: 100 μg/ml, three days
Procedure: Each of Examples 1 to 3 and Comparative Examples 1 to 3 was added to a mouse melanoma cell (B-16 mouse melanoma cell) culture medium, and a whitening effect thereof at the cellular level was tested.
Each extract was tested after being added to the culture medium at a final concentration of 100 μg/ml, and arbutin, which was a control, was added to the medium at a concentration of 100 μg/ml. B-16 melanoma cells were treated with the experimental group or the control and then cultured for three days.
Subsequently, the cultured cells were treated with trypsin, removed from the culture vessel, and then centrifuged to extract melanin. The removed cells were treated with 1 ml of a sodium hydroxide solution (1 N) and then boiled for 10 minutes to dissolve melanin, and absorbance was measured at 400 nm using a spectrophotometer to measure the amount of produced melanin.
The amount of melanin was measured as absorbance per unit cell number (10^6 cells), and a ratio thereof relative to the total melanin amount of the control was calculated as an inhibition rate (%), and the results are summarized in Table 4.

[3] = tested on: human-derived fibroblasts; test: Effect of increasing total collagen amount (PICP EIA kit); format: cell-based; conditions: 52.8 μg/ml; cultured one day; relative to control without additive; n=3
Procedure: The Lilium hansonii extracts and the three types of Lilium genus plant extracts were added to a culture medium containing human-derived fibroblasts, and then their effects of increasing a total collagen amount at the cellular level were compared. The increased total collagen amount was quantified using a Procollagen Type I C-Peptide Enzyme ImmunoAssay kit (PICP EIA kit). […] After adding each sample to a culture medium containing human-derived fibroblasts and culturing for one day, the culture medium was collected and a degree of increase in a total collagen amount at each concentration was measured at 450 nm using a PICP EIA kit and a spectrophotometer. For the comparison of effects, a degree of increase in a total collagen amount was measured in the same manner for a fibroblast culture medium to which no sample was added (control) and a sample to which vitamin C was added at a final concentration of 52.8 μg/ml. The total collagen amount was measured as UV absorbance, and a rate of increase in the total collagen amount was calculated as a ratio of a total collagen amount relative to that of the control, and the results are summarized in Table 1 below.

[4] = tested on: tyrosinase enzyme extracted from mushrooms; test: Tyrosinase inhibition; format: biochemical; conditions: 52.8 μg/ml; positive control; n=3
Procedure: A tyrosinase enzyme extracted from mushrooms and commercially available from SIGMA was used. First, tyrosine, a substrate, was dissolved in distilled water to make a solution having a concentration of 0.3 mg/ml, 1.0 ml of the solution was input into each test tube, and 1.0 ml of a potassium-phosphate buffer solution (concentration: 0.1 mol, pH: 6.8) and 0.7 ml of distilled water were added thereto. 0.2 ml of a sample solution, which had been prepared by adding one of Examples 1 to 3 of the present invention and Comparative Examples 1 to 3 to an ethanol solution at a final concentration of 100 μg/ml, was added to a reaction solution and then reacted in a 37° C. thermostat for 10 minutes. In this case, a control was prepared by adding only 0.2 ml of an ethanol solution instead of the sample solution, and vitamin C was used as a positive control. After adding 0.1 ml of a 2,500 units/ml tyrosinase solution, the reaction solution was again reacted in a 37° C. thermostat for 10 minutes. The test tube containing the reaction solution was quenched by placing in ice water to stop the reaction, and absorbance was measured at a wavelength of 475 nm using a photoelectric spectrometer, and the results are shown in Table 3 below. The tyrosinase inhibitory effect of each sample was calculated according to the following Mathematical Formula 2.

[5] = tested on: Human dermal fibroblasts; test: Hyaluronic acid synthesis promotion (Hyaluronan ELISA); format: cell-based; conditions: 10 ng/ml (10 ppb); positive control; 24 hours; control without additive = 100%
Procedure: Human dermal fibroblasts were cultured at a concentration of 1×10^5 cells/mL in a DMEM medium containing 10% fetal bovine serum and, after dispensing 500 μl thereof into each well of a 24-well plate, cultured for 18 hours. Subsequently, each sample was diluted in a DMEM medium not containing fetal bovine serum, and each sample was added at various concentrations. As a positive control, an epidermal growth factor (EGF) known to promote hyaluronic acid production was treated at a concentration of 10 ppb. After culturing for 24 hours, a cell culture medium was recovered, and the concentration of hyaluronic acid was measured using a Hyaluronan ELISA kit (R&D Systems).
In addition, the hyaluronic acid concentration of each experimental group treated with each sample was quantified based on the hyaluronic acid concentration (100%) of a control not containing an additive, and the results are shown in the following Table 5.

In the case of `N=C(N)NN` [Aminoguanidine, aminoguanidine], the “Glycation inhibition rate (%)” value [1] is reported as 54.89%.

With `OC[C@H]1O[C@@H](Oc2ccc(O)cc2)[C@H](O)[C@@H](O)[C@@H]1O` [Arbutin, arbutin] the “Total melanin amount (Abs)” value ([2]; absorbance at 400 nm per 10^6 cells, control 0.254) was 0.126 Abs and the inhibition at 100 µg/mL ([2]; Mus musculus, 72 h, relative to control, read-out: Inhibition rate (%) (total melanin)) was 50.4%.

With `O=C1O[C@H]([C@@H](O)CO)C(O)=C1O` [Vitamin C, vitamin C] the “Collagen increase rate (%)” value [3] was 26% and the “Tyrosinase inhibition rate (%)” value [4] was 50%.

With “EGF: epidermal growth factor known to promote hyaluronic acid production, positive control” the “Hyaluronic acid (%)” value [5] was 150.9%.

Source: patent publication US12514814B2, “Composition containing extract of Lilium hansonii leichtlin ex baker” (LG HOUSEHOLD & HEALTH CARE LTD., priority 2019, dated 2026)
